Test results as given in patent US11028095B2, “Spiro-lactam and bis-spiro-lactam NMDA receptor modulators and uses thereof” (Aptinyx Inc., priority 2016, dated 2021).

Experiments:
[1] = Microsomal stability (Human); format: in vitro ADME; conditions: human microsomes
Experimental: Microsomal stability of disclosed compounds was investigated. The following table indicates the percent of compound remaining after 60 minutes.

Plasma stability (Human) = format: in vitro ADME
Experimental: (§1) Plasma stability of disclosed compounds was investigated. The following table indicates the percent of compound remaining after 60 minutes.

Plasma stability (Rat) = format: in vitro ADME
Experimental: as §1

[2] = target: T1, NMDAR2A expressing HEK cell membranes (Homo sapiens, UniProt Q05586+Q12879); assay: NMDAR agonist assay, [3H]MK-801 binding, NMDAR2A; format: biochemical
T1 construct: expressed in transfected cells; host or cells: HEK cells (membrane extract)
Experimental: (§2) (nonequilibrium conditions).
(§3) The baseline value was determined from the best fit curve of the DPM values modeled using the GraphPad program and the log(agonist) vs. response(three parameters) algorithm was then subtracted from all points in the dataset.

[3] = target: T2, NMDAR2B expressing HEK cell membranes (Homo sapiens, UniProt Q05586+Q13224); assay: NMDAR agonist assay, [3H]MK-801 binding, NMDAR2B; format: biochemical
T2 construct: expressed in transfected cells; host or cells: HEK cells (membrane extract)
Experimental: as §2, §3

[4] = target: T3, NMDAR2C expressing HEK cell membranes (Homo sapiens, UniProt Q05586+Q14957); assay: NMDAR agonist assay, [3H]MK-801 binding, NMDAR2C; format: biochemical
T3 construct: expressed in transfected cells; host or cells: HEK cells (membrane extract)
Experimental: as §2, §3

[5] = target: T4, NMDAR2D expressing HEK cell membranes (Homo sapiens, UniProt O15399+Q05586); assay: NMDAR agonist assay, [3H]MK-801 binding, NMDAR2D; format: biochemical
T4 construct: expressed in transfected cells; host or cells: HEK cells (membrane extract)
Experimental: as §2, §3

IV pharmacokinetics = format: in vivo; conditions: rat, in vivo, Sprague Dawley rats, 2 mg/kg, normal saline
Experimental: Sprague Dawley rats were dosed intravenously using a normal saline formulation containing 2 mg/kg of the compounds identified in the below table. The table below summarizes the results of the IV pharmacokinetics.

[6] = Oral pharmacokinetics (plasma, brain, CSF); format: in vivo; conditions: Sprague Dawley rats, per os, 10 mg/kg
Experimental: In another experiment, Sprague Dawley rats were dosed per os using a normal saline formulation containing 10 mg/kg of the compounds identified in the table below. Plasma, brain, and CSF samples were analyzed at various time points over a 24 hour period. The table below summarizes the results of the oral pharmacokinetics.

[7] = system: Sciatic nerve chronic constriction nerve injury; assay: Bennett nerve injury assay (mechanical analgesia, paw withdrawal threshold); format: in vivo, Sprague Dawley rats
Experimental: The Bennett model of mechanical analgesia is used to assess the analgesic effects of compounds as measured by paw withdrawal threshold. Bennett G J, Xie Y K, “A peripheral mononeuropathy in rat that produces disorders of pain sensation like those seen in man,” Pain 33:87-107, 1988. […] Vehicle animals receive the surgery and then receive vehicle rather than test compound. Animals were tested 1 hr, 24 h and 1 wk post-test compound or vehicle administration.
Male 2-3 month old Sprague Dawley rats were used. Harlan was the supplier for all studies. Rats were housed in Lucite cages with aspen wood chip bedding, maintained on a 12:12 light:dark cycle (lights on at 5 AM), and given ad libitum access to Purina lab chow (USA) and tap water throughout the study.
Rats were anesthetized using inhaled isoflurane (2.5%). Sciatic nerve chronic constriction nerve injury surgery was performed as previously described (Bennett and Xie, 1988). An incision (˜1.5 cm in length) was made with a scalpel blade dorsally through skin on the right hind limb, parallel and posterior to femur. Using a small pointed hemostat, the biceps femoris and gluteus superficialis muscles were separated. Using curved blunt forceps, the common sciatic nerve was isolated and exposed. For the mechanical analgesia studies, the whole sciatic nerve was ligated. Using hemostats/forceps and chromic gut (5-0), the nerve was loosely ligated with a square knot; 3 ligatures, 1 mm apart were placed on the nerve. […] Testing occurred approximately 2 weeks post-surgery.
During testing, rats were acclimated to the surface of a suspended wire mesh grid (1 cm×1 cm, with the wire being 0.3 cm in diameter) for 15-20 min Starting from the smallest, each Von Frey filament was pressed perpendicularly to the plantar surface of the affected (ipsilateral) hind paw until slightly bent and then held for 6 second. If an obvious hind paw withdrawal or a flinching behavior immediately after the withdrawal of the filament was not observed, the next larger filament was used in the same manner. In case of a response, a lower filament was used. This was repeated until six responses were collected.
For all studies, animals were baselined prior to study start to test for allodynia (defined as a paw withdrawal threshold under 5). A subset of animals was tested with gabapentin (150 mg/kg, PO) to ensure at least 50% analgesia. Once it was confirmed animals were ready for study initiation, animals were balanced across groups. All study investigators were blind to treatment conditions. Animals were dosed with 0.1, 1 or 10 mg/kg of test compound via oral gavage (PO), control sets of animals were dosed with gabapentin (150 mg/kg, PO) or vehicle (0.5% Na-CMC in 0.9% sterile saline, PO). Testing occurred 1 h post-dosing with animals retested 24 hrs and 1 week post-dosing. The percent analgesia calculations for each animal were made using the following equation: % analgesia=[(log(x)−y)/((log (z)−y)]*100, where x=the paw withdrawal threshold for the drug-treated animal in grams, y=the average of the log(x) values for the vehicle treated group, and z=the paw withdrawal threshold for naïve animals in grams (historical value of 15 used). The results for Compound AD, where the percentage of analgesia is measured at 1 hour, 24 hours, and 1 week after compound administration are as follows: for 0.1 mg/kg dose: 37.8% at 1 h, 29.7% at 24 h, and 63.1% at 1 wk; for 1 mg/kg dose: 48.8% at 1 h, 20.6% at 24 h, and 19.8% at 1 wk; and for 10 mg/kg dose: 70.3% at 1 h, 38.8% at 24 h, and 11.3% at 1 wk.

T4 sequence (O15399 28-1336, other chains not shown): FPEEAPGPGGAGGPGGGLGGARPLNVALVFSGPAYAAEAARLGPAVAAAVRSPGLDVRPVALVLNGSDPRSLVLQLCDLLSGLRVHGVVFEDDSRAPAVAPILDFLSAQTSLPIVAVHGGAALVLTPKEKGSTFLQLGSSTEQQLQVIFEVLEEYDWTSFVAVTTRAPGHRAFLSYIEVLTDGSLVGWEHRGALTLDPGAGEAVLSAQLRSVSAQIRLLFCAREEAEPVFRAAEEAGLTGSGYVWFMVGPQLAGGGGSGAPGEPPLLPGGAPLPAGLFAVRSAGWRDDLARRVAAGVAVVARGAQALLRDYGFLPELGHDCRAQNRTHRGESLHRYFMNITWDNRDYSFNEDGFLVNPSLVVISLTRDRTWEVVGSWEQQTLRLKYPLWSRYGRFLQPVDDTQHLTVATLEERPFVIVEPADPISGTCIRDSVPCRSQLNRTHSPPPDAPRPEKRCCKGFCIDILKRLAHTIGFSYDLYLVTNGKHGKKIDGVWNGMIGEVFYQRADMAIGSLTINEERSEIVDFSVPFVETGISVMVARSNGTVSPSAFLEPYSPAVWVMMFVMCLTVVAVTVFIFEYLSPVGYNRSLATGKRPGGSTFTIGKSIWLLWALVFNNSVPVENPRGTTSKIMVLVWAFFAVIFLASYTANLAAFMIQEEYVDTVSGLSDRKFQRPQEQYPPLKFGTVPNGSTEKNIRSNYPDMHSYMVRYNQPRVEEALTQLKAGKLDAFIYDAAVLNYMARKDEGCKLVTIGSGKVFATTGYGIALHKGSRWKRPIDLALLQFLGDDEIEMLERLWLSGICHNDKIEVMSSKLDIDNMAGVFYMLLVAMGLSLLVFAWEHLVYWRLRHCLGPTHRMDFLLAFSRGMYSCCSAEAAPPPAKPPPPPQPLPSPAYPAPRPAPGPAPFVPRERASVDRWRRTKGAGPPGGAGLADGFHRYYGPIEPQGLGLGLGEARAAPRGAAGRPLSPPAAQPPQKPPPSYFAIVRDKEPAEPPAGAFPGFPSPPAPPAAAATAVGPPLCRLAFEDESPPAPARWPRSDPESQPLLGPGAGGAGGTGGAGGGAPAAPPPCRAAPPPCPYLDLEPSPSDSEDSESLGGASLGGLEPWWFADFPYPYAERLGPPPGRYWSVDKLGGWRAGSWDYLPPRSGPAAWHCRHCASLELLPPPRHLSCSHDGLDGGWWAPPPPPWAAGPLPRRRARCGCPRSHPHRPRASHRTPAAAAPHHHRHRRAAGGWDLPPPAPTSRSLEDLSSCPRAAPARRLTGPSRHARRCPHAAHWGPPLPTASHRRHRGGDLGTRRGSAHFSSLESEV
T2 sequence (Q13224 27-1484, other chains not shown): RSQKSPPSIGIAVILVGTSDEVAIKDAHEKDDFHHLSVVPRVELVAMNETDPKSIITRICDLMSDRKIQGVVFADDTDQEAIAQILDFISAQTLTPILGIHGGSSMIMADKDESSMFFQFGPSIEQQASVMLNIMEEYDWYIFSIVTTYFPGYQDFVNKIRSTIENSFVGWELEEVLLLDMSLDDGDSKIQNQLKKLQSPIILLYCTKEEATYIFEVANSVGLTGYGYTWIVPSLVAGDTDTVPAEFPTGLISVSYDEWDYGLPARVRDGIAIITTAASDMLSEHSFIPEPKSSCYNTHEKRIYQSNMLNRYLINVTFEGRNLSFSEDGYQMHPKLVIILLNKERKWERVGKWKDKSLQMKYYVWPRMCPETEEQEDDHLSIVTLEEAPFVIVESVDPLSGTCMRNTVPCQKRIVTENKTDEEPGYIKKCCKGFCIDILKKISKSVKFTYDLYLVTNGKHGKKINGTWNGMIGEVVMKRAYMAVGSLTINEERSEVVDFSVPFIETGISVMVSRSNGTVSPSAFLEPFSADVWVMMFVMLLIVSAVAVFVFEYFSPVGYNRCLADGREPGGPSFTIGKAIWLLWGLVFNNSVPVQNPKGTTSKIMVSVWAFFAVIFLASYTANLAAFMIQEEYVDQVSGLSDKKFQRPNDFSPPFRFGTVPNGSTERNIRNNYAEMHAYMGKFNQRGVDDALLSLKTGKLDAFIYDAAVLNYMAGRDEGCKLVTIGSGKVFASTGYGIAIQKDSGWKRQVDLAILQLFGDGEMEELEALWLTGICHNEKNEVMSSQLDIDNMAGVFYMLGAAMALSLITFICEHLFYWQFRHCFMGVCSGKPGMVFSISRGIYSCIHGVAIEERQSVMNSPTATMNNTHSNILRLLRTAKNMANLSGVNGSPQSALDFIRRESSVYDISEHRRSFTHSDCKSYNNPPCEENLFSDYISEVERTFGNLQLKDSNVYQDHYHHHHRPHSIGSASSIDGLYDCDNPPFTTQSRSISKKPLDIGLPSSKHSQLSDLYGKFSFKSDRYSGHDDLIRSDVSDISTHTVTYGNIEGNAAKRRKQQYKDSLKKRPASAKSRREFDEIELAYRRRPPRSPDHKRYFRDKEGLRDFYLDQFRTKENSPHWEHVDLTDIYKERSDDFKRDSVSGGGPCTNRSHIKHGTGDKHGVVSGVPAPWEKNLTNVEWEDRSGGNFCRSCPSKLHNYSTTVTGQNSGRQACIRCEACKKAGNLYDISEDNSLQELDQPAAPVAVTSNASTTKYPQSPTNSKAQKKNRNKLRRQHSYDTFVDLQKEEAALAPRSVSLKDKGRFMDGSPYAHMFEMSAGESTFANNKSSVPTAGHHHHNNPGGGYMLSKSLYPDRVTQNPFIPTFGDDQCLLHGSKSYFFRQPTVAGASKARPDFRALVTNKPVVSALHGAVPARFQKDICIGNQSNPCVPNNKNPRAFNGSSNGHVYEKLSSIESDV
T3 sequence (Q14957 20-1233, other chains not shown): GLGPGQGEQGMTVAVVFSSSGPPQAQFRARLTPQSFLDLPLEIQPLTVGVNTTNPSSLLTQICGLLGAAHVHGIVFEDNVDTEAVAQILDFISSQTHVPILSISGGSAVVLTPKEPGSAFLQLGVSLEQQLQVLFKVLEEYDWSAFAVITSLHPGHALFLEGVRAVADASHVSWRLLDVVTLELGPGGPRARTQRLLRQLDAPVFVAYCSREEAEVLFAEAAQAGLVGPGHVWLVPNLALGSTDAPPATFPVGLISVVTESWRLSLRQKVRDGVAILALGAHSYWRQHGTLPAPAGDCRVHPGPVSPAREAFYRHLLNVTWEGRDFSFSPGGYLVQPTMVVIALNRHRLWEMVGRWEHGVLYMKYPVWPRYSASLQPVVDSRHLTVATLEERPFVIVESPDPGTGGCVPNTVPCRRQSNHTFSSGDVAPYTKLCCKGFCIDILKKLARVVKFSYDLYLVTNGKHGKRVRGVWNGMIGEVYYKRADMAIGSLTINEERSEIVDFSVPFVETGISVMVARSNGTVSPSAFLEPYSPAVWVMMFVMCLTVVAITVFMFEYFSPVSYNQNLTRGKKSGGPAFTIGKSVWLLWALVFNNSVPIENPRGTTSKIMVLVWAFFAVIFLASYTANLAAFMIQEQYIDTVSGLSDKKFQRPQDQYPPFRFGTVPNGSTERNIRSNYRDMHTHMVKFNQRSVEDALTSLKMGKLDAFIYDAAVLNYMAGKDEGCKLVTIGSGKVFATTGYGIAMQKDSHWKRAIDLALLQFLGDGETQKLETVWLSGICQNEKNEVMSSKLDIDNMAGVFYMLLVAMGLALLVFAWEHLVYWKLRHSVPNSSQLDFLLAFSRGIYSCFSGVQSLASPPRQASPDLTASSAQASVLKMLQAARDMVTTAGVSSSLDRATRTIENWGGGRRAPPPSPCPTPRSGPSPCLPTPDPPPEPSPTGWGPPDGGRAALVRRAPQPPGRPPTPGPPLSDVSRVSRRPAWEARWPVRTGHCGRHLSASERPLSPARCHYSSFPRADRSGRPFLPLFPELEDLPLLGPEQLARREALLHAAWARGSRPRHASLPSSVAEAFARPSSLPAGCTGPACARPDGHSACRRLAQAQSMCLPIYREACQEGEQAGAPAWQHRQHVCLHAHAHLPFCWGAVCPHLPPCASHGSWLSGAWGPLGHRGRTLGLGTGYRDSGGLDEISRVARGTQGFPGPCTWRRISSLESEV

CC(C)CN1[C@@]2(CC[C@@]13CNC3=O)CNC2=O [Compound AD, 5-isobutyl-2,5,8-triazadispiro[3.1.36.24]undecane-1,7-dione]
Microsomal (Human): percent of compound remaining after 60 minutes [1]: 100% | Plasma (Human): percent of compound remaining after 60 minutes (Plasma stability (Human)): 83% | Plasma (Rat): percent of compound remaining after 60 minutes (Plasma stability (Rat)): 88% | EC50 ([2]; NMDAR2A: log EC50, 50 μM glutamate, [3H]MK-801 binding): < 1 nM | Emax ([2]; read-out: NMDAR2A: % maximal [3H]MK-801 binding relative to 1 mM glycine, 50 μM glutamate, relative to 1 mM glycine): < 100% | EC50 ([3]; NMDAR2B: log EC50, 50 μM glutamate, [3H]MK-801 binding): < 1 nM | Emax ([3]; read-out: NMDAR2B: % maximal [3H]MK-801 binding relative to 1 mM glycine, 50 μM glutamate, relative to 1 mM glycine): < 100% | EC50 ([4]; NMDAR2C: log EC50, 50 μM glutamate, [3H]MK-801 binding): < 1 nM | Emax ([4]; read-out: NMDAR2C: % maximal [3H]MK-801 binding relative to 1 mM glycine): < 100% | EC50 ([5]; NMDAR2D: log EC50, 50 μM glutamate, [3H]MK-801 binding): > 100 nM | Emax ([5]; read-out: NMDAR2D: % maximal [3H]MK-801 binding relative to 1 mM glycine): 0% | AUC(0-t) (IV pharmacokinetics): 4710 ng·h/mL | clearance (IV pharmacokinetics): 7.01 mL/min/kg | half-life (IV pharmacokinetics): 2.27 h | C0 (IV pharmacokinetics; read-out: C0): 2800 ng/mL | Vd (IV pharmacokinetics; read-out: Vss): 0.92 L/kg | CSF Cmax ([6]; CSF): 1965.2 ng/mL | Brain Cmax ([6]; brain): 1143.2 ng/mL | AUC(0-t) ([6]; rat, plasma, po): 19300 ng·h/mL | bioavailability ([6]; rat, plasma, po): 82% | Tmax ([6]; rat, plasma, po, normal saline, read-out: Tmax): 0.33 h | Cmax ([6]; rat, po, plasma, read-out: Cmax): 8560 ng/mL | percentage of analgesia ([7]; 0.1 mg/kg PO, 1 wk after administration): 63.1% | percentage of analgesia ([7]; 0.1 mg/kg PO, 1 h after administration): 37.8% | percentage of analgesia ([7]; 0.1 mg/kg PO, 24 h after administration): 29.7% | percentage of analgesia ([7]; 1 mg/kg PO, 1 wk after administration): 19.8% | percentage of analgesia ([7]; 1 mg/kg PO, 1 h after administration): 48.8% | percentage of analgesia ([7]; 1 mg/kg PO, 24 h after administration): 20.6% | percentage of analgesia ([7]; 10 mg/kg PO, 1 wk after administration): 11.3% | percentage of analgesia ([7]; 10 mg/kg PO, 1 h after administration): 70.3% | percentage of analgesia ([7]; 10 mg/kg PO, 24 h after administration): 38.8%
